The values that follow come from patent publication US7385026B1, “Modified ghrelin polypeptides” (priority 1999, dated 2008).

Molecules are shown by their SMILES. pEC50: −log10 of the molar value. Like-named read-outs stand apart in the source and are kept apart here. Peptide text beside a SMILES is read from it. * marks the point of attachment. Octanoyl = CCCCCCCC(=O)*

In this test the target is T1, rat GHS-receptor (GHR-R) (Rattus norvegicus, UniProt O08725).
T1 construct: A full-length cDNA for rat GHR-R was obtained by RT-PCR; expressed in transfected cells
Put plainly: Ca-releasing activity (increase in intracellular calcium) in CHO-GHSR62 cells, FLIPR. Type of test: cell-based. From the text:
To assay an increase in the intracellular calcium ion concentration (Ca-releasing activity) occurring upon binding of a GH secretagogue (GHS) to GHS-receptor (GHR-R), a cell strain expressing rat GHR-R was created in the following manner. A full-length cDNA for rat GHR-R was obtained by RT-PCR (reverse transcriptase-polymerase chain reaction) where a cDNA derived from rat brain was used as template. From the nucleotide sequence of known rat GHR-R [K. K. Mckee, et al, Molecular Endocrinology 11, 415-423 (1997)], sense and antisense primers consisting of the following nucleotide sequences were synthesized.
The amplified cDNA was ligated to vector pcDNAIII (Invitrogen) to construct expression vector GHSR-pcDNAIII. CHO cells were transformed via the expression vector, and the transformed cells stably expressing GHR-R were selected in a medium containing 1 μg/ml G418. […] A change in the intracellular calcium ion concentration (Ca-releasing activity) was measured by an FLIPR system (Molecular Device). Before this measurement, 4×10^4 CHO-GHSR62 cells were put to a 96-well microplate with black wall (Corning Co., Ltd) and cultured for 12 to 15 hours. Then, the cells were incubated with 4 μM fluorescent Fluo4 (Molecular Probe Co., Ltd) for 1 hour and washed four times with Hank's BSS (Hank's Balanced Salt Solution) containing 20 mM Hepes ([N-2-hydroxyethyl]-piperazine-N-[2-ethanesulfonic acid]) and 2.5 mM probenecid, and the Ca-releasing activity was assayed by adding a sample and measuring a change in the fluorescence.
Peptide fragments obtained by partially digested the rat- and human-derived ghrelins by various proteases, or chemically synthesized peptides, were examined for their Ca releasing activity in order to determine a core amino acid sequence and the optimum chain length of a modifying fatty acid necessary for Ca-releasing activity.
The Ca-increasing activities of the ghrelin derivative peptide-type compounds synthesized in Example 10 and the natural ghrelin peptide were measured in the same manner as in Example 1.
In this examination, the intracellular Ca-releasing activity in CHO cells expressing rat GSH receptor was used as the indicator.
For orientation: Calcium flux is commonly read through the fluorescence of an indicator in the cells.

The mark [1] stands for this setting: CHO-GHSR62 cells (CHO cells expressing rat GHS receptor), FLIPR, read-out: Ca-releasing activity EC50.

T1 sequence (O08725 whole entry): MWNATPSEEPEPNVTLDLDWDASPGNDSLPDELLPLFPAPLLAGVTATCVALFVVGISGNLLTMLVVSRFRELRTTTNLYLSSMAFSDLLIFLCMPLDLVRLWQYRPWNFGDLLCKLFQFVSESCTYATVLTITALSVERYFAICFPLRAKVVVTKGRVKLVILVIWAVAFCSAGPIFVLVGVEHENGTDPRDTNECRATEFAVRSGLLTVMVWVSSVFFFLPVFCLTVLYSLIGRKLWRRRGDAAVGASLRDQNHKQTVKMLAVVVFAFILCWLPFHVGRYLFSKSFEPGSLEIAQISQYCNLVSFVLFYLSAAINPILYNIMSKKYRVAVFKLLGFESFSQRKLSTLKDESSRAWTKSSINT

Broadly, the EC50 is the concentration at which the effect is half-maximal. For orientation: pEC50 means the EC50 on a negative log10 scale, so that one unit is a factor of ten. On to `CCCCCCCC(=O)OC[C@H](NC(=O)[C@H](CO)NC(=O)CN)C(=O)N[C@@H](Cc1ccccc1)C(=O)N[C@@H](CC(C)C)C(=O)N[C@@H](CO)C(=O)N1CCC[C@H]1C(=O)N[C@@H](CCC(=O)O)C(=O)N[C@@H](Cc1cnc[nH]1)C(=O)N[C@@H](CCC(N)=O)C(=O)N[C@@H](CCCNC(=N)N)C(=O)N[C@H](C(=O)N[C@@H](CCC(N)=O)C(=O)N[C@@H](CCC(N)=O)C(=O)N[C@@H](CCCNC(=N)N)C(=O)N[C@@H](CCCCN)C(=O)N[C@@H](CCC(=O)O)C(=O)N[C@@H](CO)C(=O)N[C@@H](CCCCN)C(=O)N[C@@H](CCCCN)C(=O)N1CCC[C@H]1C(=O)N1CCC[C@H]1C(=O)N[C@@H](C)C(=O)N[C@@H](CCCCN)C(=O)N[C@@H](CC(C)C)C(=O)N[C@@H](CCC(N)=O)C(=O)N1CCC[C@H]1C(=O)N[C@@H](CCCNC(=N)N)C(=O)O)C(C)C` [Compound 1, human Ghrelin], for which the EC50 (Ca-releasing activity (EC50, nM), Table 3, Example 9: protease fragments or synthetic peptides, CHO-GHSR62 cells) came to 2.6 nM. Besides, the negative-log EC50 (pEC50) (Ca-releasing activity EC50, CHO-GHSR62 cells (CHO cells expressing rat GHS receptor), FLIPR) is 8.89.
As for `CCCCCCCC(=O)OC[C@H](NC(=O)[C@H](CO)NC(=O)CN)C(=O)N[C@@H](Cc1ccccc1)C(=O)N[C@@H](CC(C)C)C(=O)N[C@@H](CO)C(=O)N1CCC[C@H]1C(=O)N[C@@H](CCC(=O)O)C(=O)N[C@@H](Cc1c[nH]cn1)C(N)=O` [Compound 3, Ghrelin (1-9)-amide] (H-GSS(Octanoyl)FLSPEH-NH2), the “Ca-releasing activity of ghrelin (1-9) after amidation relative to before amidation” value is on record as “about 7 times”. The pEC50 under setting [1] is 8.27.
For the compound `CCCCCCCC(=O)OC[C@H](NC(=O)CN)C(=O)N[C@@H](CO)C(=O)N[C@@H](Cc1ccccc1)C(=O)N[C@@H](CC(C)C)C(=O)N[C@@H](CO)C(=O)N1CCC[C@H]1C(=O)N[C@@H](CCC(=O)O)C(=O)N[C@@H](Cc1c[nH]cn1)C(N)=O` [Compound 4, [Ser^2(Octanoyl), Ser^3]-Ghrelin (1-9)-amide] (H-GS(Octanoyl)SFLSPEH-NH2), where the note is “octanoyl moved from 3rd to 2nd serine”, the “Ca-releasing activity relative to the 3rd-serine octanoyl parent” value is on record as “about 1/200”.
On to `CCCCCCCC(=O)NCC(=O)N[C@@H](CO)C(=O)N[C@@H](CO)C(=O)N[C@@H](Cc1ccccc1)C(=O)N[C@@H](CC(C)C)C(=O)N[C@@H](CO)C(=O)N1CCC[C@H]1C(=O)N[C@@H](CCC(=O)O)C(=O)N[C@@H](Cc1c[nH]cn1)C(N)=O` [Compound 6, [N-Octanoyl, Ser^3]-Ghrelin (1-9)-amide] (Octanoyl-GSSFLSPEH-NH2), for which the pEC50 under setting [1] was under 5.00.
Same read-out and setting: to `CC(=O)OC[C@H](NC(=O)[C@H](CO)NC(=O)CN)C(=O)N[C@@H](Cc1ccccc1)C(=O)N[C@@H](CC(C)C)C(=O)N[C@@H](CO)C(=O)N1CCC[C@H]1C(=O)N[C@@H](CCC(=O)O)C(=O)N[C@@H](Cc1c[nH]cn1)C(=O)N[C@@H](CCC(N)=O)C(=O)N[C@@H](CCCCN)C(=O)N[C@@H](C)C(=O)N[C@@H](CCC(N)=O)C(=O)N[C@@H](CCC(N)=O)C(=O)N[C@@H](CCCNC(=N)N)C(=O)N[C@@H](CCCCN)C(=O)N[C@@H](CCC(=O)O)C(=O)N[C@@H](CO)C(=O)N[C@@H](CCCCN)C(=O)N[C@@H](CCCCN)C(=O)N1CCC[C@H]1C(=O)N1CCC[C@H]1C(=O)N[C@@H](C)C(=O)N[C@@H](CCCCN)C(=O)N[C@@H](CC(C)C)C(=O)N[C@@H](CCC(N)=O)C(=O)N1CCC[C@H]1C(=O)N[C@@H](CCCNC(=N)N)C(=O)O` [Compound 8, [Ser^3(Acetyl)]-rGhrelin] belongs 6.11.
Same read-out and setting: to `CCCC(=O)OC[C@H](NC(=O)[C@H](CO)NC(=O)CN)C(=O)N[C@@H](Cc1ccccc1)C(=O)N[C@@H](CC(C)C)C(=O)N[C@@H](CO)C(=O)N1CCC[C@H]1C(=O)N[C@@H](CCC(=O)O)C(=O)N[C@@H](Cc1c[nH]cn1)C(=O)N[C@@H](CCC(N)=O)C(=O)N[C@@H](CCCCN)C(=O)N[C@@H](C)C(=O)N[C@@H](CCC(N)=O)C(=O)N[C@@H](CCC(N)=O)C(=O)N[C@@H](CCCNC(=N)N)C(=O)N[C@@H](CCCCN)C(=O)N[C@@H](CCC(=O)O)C(=O)N[C@@H](CO)C(=O)N[C@@H](CCCCN)C(=O)N[C@@H](CCCCN)C(=O)N1CCC[C@H]1C(=O)N1CCC[C@H]1C(=O)N[C@@H](C)C(=O)N[C@@H](CCCCN)C(=O)N[C@@H](CC(C)C)C(=O)N[C@@H](CCC(N)=O)C(=O)N1CCC[C@H]1C(=O)N[C@@H](CCCNC(=N)N)C(=O)O` [Compound 10, [Ser^3(Butyryl)]-rGhrelin] belongs 6.55; to `CCCCCCCCCCCC(=O)OC[C@H](NC(=O)[C@H](CO)NC(=O)CN)C(=O)N[C@@H](Cc1ccccc1)C(=O)N[C@@H](CC(C)C)C(=O)N[C@@H](CO)C(=O)N1CCC[C@H]1C(=O)N[C@@H](CCC(=O)O)C(=O)N[C@@H](Cc1c[nH]cn1)C(=O)N[C@@H](CCC(N)=O)C(=O)N[C@@H](CCCCN)C(=O)N[C@@H](C)C(=O)N[C@@H](CCC(N)=O)C(=O)N[C@@H](CCC(N)=O)C(=O)N[C@@H](CCCNC(=N)N)C(=O)N[C@@H](CCCCN)C(=O)N[C@@H](CCC(=O)O)C(=O)N[C@@H](CO)C(=O)N[C@@H](CCCCN)C(=O)N[C@@H](CCCCN)C(=O)N1CCC[C@H]1C(=O)N1CCC[C@H]1C(=O)N[C@@H](C)C(=O)N[C@@H](CCCCN)C(=O)N[C@@H](CC(C)C)C(=O)N[C@@H](CCC(N)=O)C(=O)N1CCC[C@H]1C(=O)N[C@@H](CCCNC(=N)N)C(=O)O` [Compound 13, [Ser^3(Lauroyl)]-rGhrelin], 8.62.
Consider `CCCCCCCCCCCCCCCC(=O)OC[C@H](NC(=O)[C@H](CO)NC(=O)CN)C(=O)N[C@@H](Cc1ccccc1)C(=O)N[C@@H](CC(C)C)C(=O)N[C@@H](CO)C(=O)N1CCC[C@H]1C(=O)N[C@@H](CCC(=O)O)C(=O)N[C@@H](Cc1c[nH]cn1)C(=O)N[C@@H](CCC(N)=O)C(=O)N[C@@H](CCCCN)C(=O)N[C@@H](C)C(=O)N[C@@H](CCC(N)=O)C(=O)N[C@@H](CCC(N)=O)C(=O)N[C@@H](CCCNC(=N)N)C(=O)N[C@@H](CCCCN)C(=O)N[C@@H](CCC(=O)O)C(=O)N[C@@H](CO)C(=O)N[C@@H](CCCCN)C(=O)N[C@@H](CCCCN)C(=O)N1CCC[C@H]1C(=O)N1CCC[C@H]1C(=O)N[C@@H](C)C(=O)N[C@@H](CCCCN)C(=O)N[C@@H](CC(C)C)C(=O)N[C@@H](CCC(N)=O)C(=O)N1CCC[C@H]1C(=O)N[C@@H](CCCNC(=N)N)C(=O)O` [Compound 14, [Ser^3(Palmitoyl)]-rGhrelin], for which, under setting [1], the pEC50 is 8.19.
For `CC(C)C[C@H](NC(=O)[C@H](CCCCN)NC(=O)[C@H](C)NC(=O)[C@@H]1CCCN1C(=O)[C@@H]1CCCN1C(=O)[C@H](CCCCN)NC(=O)[C@H](CCCCN)NC(=O)[C@H](CO)NC(=O)[C@H](CCC(=O)O)NC(=O)[C@@H](N)CCCCN)C(=O)N[C@@H](CCC(N)=O)C(=O)N1CCC[C@H]1C(=O)N[C@@H](CCCNC(=N)N)C(=O)O` [Compound 19, Ghrelin (16-28)], the pEC50 is under 5.00 under setting [1] and under 5.00 (Table 3, Example 9: protease fragments or synthetic peptides, CHO-GHSR62 cells, read-out: Ca-releasing activity (EC50)).
Regarding `CCCCCCCC(=O)OC[C@H](NC(=O)[C@H](CO)NC(=O)CN)C(=O)N[C@@H](Cc1ccccc1)C(=O)N[C@@H](CC(C)C)C(=O)N[C@@H](CO)C(=O)N1CCC[C@H]1C(=O)N[C@@H](CCC(=O)O)C(=O)N[C@@H](Cc1c[nH]cn1)C(=O)N[C@@H](CCC(N)=O)C(=O)N[C@@H](CCCNC(=N)N)C(=O)N[C@H](C(=O)N[C@@H](CCC(N)=O)C(=O)N[C@@H](CCC(N)=O)C(=O)N[C@@H](CCCNC(=N)N)C(=O)O)C(C)C` [Compound 20, hGhrelin (1-15)], the pEC50 under setting [1] is 8.15.
Same read-out and setting: the result for `CCCCCCCC(=O)OC[C@H](NC(=O)[C@H](CO)NC(=O)CN)C(=O)N[C@@H](Cc1ccccc1)C(=O)N[C@@H](CC(C)C)C(=O)N[C@@H](CO)C(=O)N1CCC[C@H]1C(=O)N[C@@H](CCC(=O)O)C(=O)N[C@@H](Cc1c[nH]cn1)C(=O)N[C@@H](CCC(N)=O)C(=O)N[C@@H](CCCCN)C(=O)N[C@@H](C)C(=O)N[C@@H](CCC(N)=O)C(=O)N[C@@H](CCC(N)=O)C(=O)N[C@@H](CCCNC(=N)N)C(=O)O` [Compound 21, rGhrelin (1-15)] reads 8.07.
